Laboratory results published in publication PMC9586930, “Molecular insights into the distinct signaling duration for the peptide-induced PTH1R activation” (Nature Communications, 2022).
Residue numbers refer to the chain shown, from its start.

Assays:
Details in all cases: for ΔpEC50±SEM: relative to WT, n = 3 in triplicate; for ΔpEC50±SEM / Span±SEM: mean ± SEM; for Span±SEM: window between maximal response (Emax) and vehicle, n = 3
[1] = target: T1, PTH1R L174A mutant (Homo sapiens, UniProt Q03431, L174A); assay: cAMP accumulation assay (GloSensor), PTH1R L174A; assay type: cell-based
T1 construct: a flag-tag was fused to the N terminal of full-length PTH1R (WT or mutant); expressed in transfected cells; host or cells: HEK293T
T1 sequence (Q03431 27-593 L174A): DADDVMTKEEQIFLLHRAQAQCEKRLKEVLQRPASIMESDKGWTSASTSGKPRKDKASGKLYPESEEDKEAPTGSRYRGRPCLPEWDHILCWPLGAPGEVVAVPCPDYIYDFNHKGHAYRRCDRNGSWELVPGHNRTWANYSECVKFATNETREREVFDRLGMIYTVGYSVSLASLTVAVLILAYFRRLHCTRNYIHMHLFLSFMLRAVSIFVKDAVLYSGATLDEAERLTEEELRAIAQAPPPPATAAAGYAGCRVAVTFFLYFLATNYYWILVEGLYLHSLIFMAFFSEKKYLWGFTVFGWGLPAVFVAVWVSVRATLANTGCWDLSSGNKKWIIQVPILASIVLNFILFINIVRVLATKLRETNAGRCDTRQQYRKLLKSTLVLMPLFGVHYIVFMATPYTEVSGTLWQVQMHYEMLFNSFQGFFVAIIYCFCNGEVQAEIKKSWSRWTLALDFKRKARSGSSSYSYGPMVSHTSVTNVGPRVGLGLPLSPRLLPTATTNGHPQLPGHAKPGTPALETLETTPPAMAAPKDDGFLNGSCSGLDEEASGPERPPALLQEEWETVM
Description: (§1) Human embryonic kidney 293 T (HEK293T, ATCC: CRL-1573) cells were transfected with a plasmid mixture consisting of pcDNA3.1-flag-PTH1R (WT or mutants) and the cAMP biosensor GloSensor-22F (Promega) at a ratio of 2:1 (see Supplementary Table 7 for a list of primers used in this study). After 24 h, transfected cells were plated onto a 384-well plate, which was treated with cell adherent reagent (Applygen) in advance. After another 12 h, cells were treated with Hank’s balanced salt solution for starvation and then incubated in CO2-independent media containing 4% GloSensor cAMP Reagent (Promega) at a volume of 5 μl per well and incubated for 20 min at RT before measurements for baseline luminescence (Spark Multimode microplate reader, TECAN). Next, test ligands were added at different concentrations from 10^−6 to 10^−13 M before second measurement. Finally, data were normalized to 100% of the maximal PTH (1-34) response for WT PTH1R using a sigmoidal dose-response in GraphPad Prism.
(§2) Statistical analyses were performed on at least three individual datasets and analysed using GraphPad Prism software. Bars represent differences in the calculated agonist potency (pEC50) and maximum agonist response (Emax) for each mutant relative to the WT receptor. Data are mean± s.e.m. from at least three independent experiments, performed in triplicates. ns, not significant, ^nsP > 0.01; ^*P < 0.01; ^**P < 0.001; ^***P < 0.0001 (one-way analysis of variance (ANOVA) followed by Dunnett’s test, compared with the response of the WT). For dose-response experiments, data were normalized and analyzed using nonlinear curve fitting for the log (agonist) versus response (three parameters) curves.

[2] = system: T2, PTH1R T178A mutant; assay: cAMP accumulation assay (GloSensor), PTH1R T178A; assay type: cell-based, human
T2 construct: a flag-tag was fused to the N terminal of full-length PTH1R (WT or mutant); expressed in transfected cells; host or cells: HEK293T
Description: as §1, with “After” for “Human embryonic kidney 293 T (HEK293T, ATCC: CRL-1573) cells were transfected with a plasmid mixture consisting of pcDNA3.1-flag-PTH1R (WT or mutants) and the cAMP biosensor GloSensor-22F (Promega) at a ratio of 2:1 (see Supplementary Table 7 for a list of primers used in this study). After”
Statistical analyses were performed on at least three individual datasets and analysed using GraphPad Prism software. […] Data are mean± s.e.m. from at least three independent experiments, performed in triplicates. ns, not significant, ^nsP > 0.01; ^*P < 0.01; ^**P < 0.001; ^***P < 0.0001 (one-way analysis of variance (ANOVA) followed by Dunnett’s test, compared with the response of the WT). For dose-response experiments, data were normalized and analyzed using nonlinear curve fitting for the log (agonist) versus response (three parameters) curves.

[3] = target: T3, PTH1R V285A mutant (Homo sapiens, UniProt Q03431, V285A); assay: cAMP accumulation assay (GloSensor), PTH1R V285A; assay type: cell-based
T3 construct: a flag-tag was fused to the N terminal of full-length PTH1R (WT or mutant); expressed in transfected cells; host or cells: HEK293T
T3 sequence (Q03431 27-593 V285A): T1 sequence (Q03431 27-593 L174A) with A148L, V259A
Description: as §1, §2

Substance | span (from the WT) ([1]; PTH1R L1741.26A, replicate 1) | ΔpEC50 (from the WT) ([1]; PTH1R L1741.26A, replicate 1) | span (from the WT) ([1]; PTH1R L1741.26A, replicate 2) | ΔpEC50 (from the WT) ([1]; PTH1R L1741.26A, replicate 2) | span (from the WT) ([1]; PTH1R L1741.26A, replicate 3) | ΔpEC50 (from the WT) ([1]; PTH1R L1741.26A, replicate 3) | ΔpEC50±SEM [1] | ΔpEC50 (from the WT) ([1]; replicate 1) | ΔpEC50 (from the WT) ([1]; replicate 2) | ΔpEC50 (from the WT) ([1]; replicate 3) | Span±SEM [1] | span (from the WT) ([2]; PTH1R T1781.30A, replicate 1) | ΔpEC50 (from the WT) ([2]; PTH1R T1781.30A, replicate 1) | span (from the WT) ([2]; PTH1R T1781.30A, replicate 2) | ΔpEC50 (from the WT) ([2]; PTH1R T1781.30A, replicate 2) | span (from the WT) ([2]; PTH1R T1781.30A, replicate 3) | ΔpEC50 (from the WT) ([2]; PTH1R T1781.30A, replicate 3) | ΔpEC50±SEM [2] | ΔpEC50 (from the WT) ([2]; replicate 1) | ΔpEC50 (from the WT) ([2]; replicate 2) | further results
H-AVAEIQLMHQRAKWIQDARRRAFLHKLIAEIHTAEI-OH [LA-PTH, long-acting PTH analog, modified PTH/PTHrP hybrid] | 93.64 | -0.262 | 87.77 | -0.161 | 98.4 | -0.17 | -0.20±0.03 | -0.262 | -0.161 | -0.17 | 93.27±3.07 | 104.1 | -0.079 | 116.4 | 0 | 180.3 | -0.07 | -0.05±0.02 | -0.079 | 0 | ΔpEC50 (from the WT) ([2]; replicate 3): -0.07; Span±SEM [2]: 133.60±23.62; span (from the WT) ([3]; PTH1R V2853.33A, replicate 1): 160.1; ΔpEC50 (from the WT) ([3]; PTH1R V2853.33A, replicate 1): -0.326; span (from the WT) ([3]; PTH1R V2853.33A, replicate 2): 211.8; ΔpEC50 (from the WT) ([3]; PTH1R V2853.33A, replicate 2): -0.5; span (from the WT) ([3]; PTH1R V2853.33A, replicate 3): 140.2; ΔpEC50 (from the WT) ([3]; PTH1R V2853.33A, replicate 3): -0.433; ΔpEC50±SEM [3]: -0.42±0.05; ΔpEC50 (from the WT) ([3]; replicate 1): -0.326; ΔpEC50 (from the WT) ([3]; replicate 2): -0.5; ΔpEC50 (from the WT) ([3]; replicate 3): -0.433; Span±SEM [3]: 170.70±21.34
H-AVSEHQLLHDKGKSIQDLRRRELLEKLL-{Aib}-KLHTA-NH2 [ABL, Abaloparatide, an analog of PTHrP, short-acting PTH1R agonist] | 94.46 | -0.37 | 117 | -0.52 | 129.9 | -0.682 | -0.52±0.09 | -0.37 | -0.52 | -0.682 | 113.79±10.36 | 120.4 | -0.829 | 180.3 | -0.74 | 96.78 | -0.62 | -0.73±0.06 | -0.829 | -0.74 | ΔpEC50 (from the WT) ([2]; replicate 3): -0.62; Span±SEM [2]: 132.49±24.86; span (from the WT) ([3]; PTH1R V2853.33A, replicate 1): 158.8; ΔpEC50 (from the WT) ([3]; PTH1R V2853.33A, replicate 1): -1.921; span (from the WT) ([3]; PTH1R V2853.33A, replicate 2): 185.5; ΔpEC50 (from the WT) ([3]; PTH1R V2853.33A, replicate 2): -2.009; span (from the WT) ([3]; PTH1R V2853.33A, replicate 3): 175.8; ΔpEC50 (from the WT) ([3]; PTH1R V2853.33A, replicate 3): -2.246; ΔpEC50±SEM [3]: -2.06±0.1; ΔpEC50 (from the WT) ([3]; replicate 1): -1.921; ΔpEC50 (from the WT) ([3]; replicate 2): -2.009; ΔpEC50 (from the WT) ([3]; replicate 3): -2.246; Span±SEM [3]: 173.37±7.80
H-SVSEIQLMHNLGKHLNSMERVEWLRKKLQDVHNF-OH [PTH, Teriparatide, human PTH 1-34, long-acting peptide agonist of PTH1R] | 90.7 | -0.41 | 103.2 | -0.706 | 154.9 | -0.481 | -0.53±0.09 | -0.41 | -0.706 | -0.481 | 116.27±19.65 | 113.4 | -0.148 | 160.5 | -0.301 | 167.8 | -0.188 | -0.21±0.05 | -0.148 | -0.301 | ΔpEC50 (from the WT) ([2]; replicate 3): -0.188; Span±SEM [2]: 147.23±17.05; span (from the WT) ([3]; PTH1R V2853.33A, replicate 1): 118.6; ΔpEC50 (from the WT) ([3]; PTH1R V2853.33A, replicate 1): -0.181; span (from the WT) ([3]; PTH1R V2853.33A, replicate 2): 150.8; ΔpEC50 (from the WT) ([3]; PTH1R V2853.33A, replicate 2): -0.072; span (from the WT) ([3]; PTH1R V2853.33A, replicate 3): 181.1; ΔpEC50 (from the WT) ([3]; PTH1R V2853.33A, replicate 3): -0.211; ΔpEC50±SEM [3]: -0.15±0.04; ΔpEC50 (from the WT) ([3]; replicate 1): -0.181; ΔpEC50 (from the WT) ([3]; replicate 2): -0.072; ΔpEC50 (from the WT) ([3]; replicate 3): -0.211; Span±SEM [3]: 152.43±15.43
